# The supplement of paper PMC10307832
# Tests used:
# Experiment in all cases: relative viability (nuclei count vs DMSO), 5 days (fraction); higher = more cells survive
# [1] = compound: Cc1ccc(NC(=O)c2ccc(CN3CCN(C)CC3)cc2)cc1Nc1nc(-c2cccnc2)cs1 [Masitinib] + O=C(c1cc(Cc2n[nH]c(=O)c3ccccc23)ccc1F)N1CCN(C(=O)C2CC2)CC1 [Olaparib] (partner 8 µM)
# Outline: (§1)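 Medians of duplicate plates are given as relative viability. That measure is the nuclei count in treated wells divided by the count in vehicle wells. Counts were taken on 4× images of lung cancer cell lines in 1536-well plates, 5 days after pin-tool dosing the day after seeding with one drug alone or a fixed anchor-drug dose plus five library-drug doses (not always all listed) in √10 steps.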
# [2] = compound: CC1=CC(=CC=C1)NC2=NC(=CS2)C3=CC=NC=C3 + CS(=O)(=O)N1CCN(Cc2cc3nc(-c4cccc5[nH]ncc45)nc(N4CCOCC4)c3s2)CC1 [Pictilisib] (partner 1 µM)
# Outline: as §1
# [3] = compound: Cc1ccc(NC(=O)c2ccc(CN3CCN(C)CC3)cc2)cc1Nc1nc(-c2cccnc2)cs1 [Masitinib] + Cc1cc(Nc2cc(N3CCN(C)CC3)nc(Sc3ccc(NC(=O)C4CC4)cc3)n2)n[nH]1 [Tozasertib] (partner 0.1 µM)
# Outline: as §1
# [4] = compound: CC1=CC(=CC=C1)NC2=NC(=CS2)C3=CC=NC=C3 + COc1cc2c(Oc3ccc(NC(=O)C4(C(=O)Nc5ccc(F)cc5)CC4)cc3F)ccnc2cc1OCCCN1CCOCC1 [Foretinib] (partner 0.25 µM)
# Outline: as §1
Cell Line,relative viability ([1]; first compound 0.01 µM),relative viability ([1]; first compound 0.03162 µM),relative viability ([1]; first compound 0.1 µM),relative viability ([1]; first compound 0.3162 µM),relative viability ([1]; first compound 1 µM),relative viability ([2]; first compound 0.08 µM),relative viability ([2]; first compound 0.253 µM),relative viability ([2]; first compound 0.8 µM),relative viability ([2]; first compound 2.53 µM),relative viability ([2]; first compound 8 µM),relative viability ([3]; first compound 0.01 µM),relative viability ([3]; first compound 0.03162 µM),relative viability ([3]; first compound 0.1 µM),relative viability ([3]; first compound 0.3162 µM),relative viability ([3]; first compound 1 µM),relative viability ([4]; first compound 0.08 µM),relative viability ([4]; first compound 0.253 µM),relative viability ([4]; first compound 0.8 µM),relative viability ([4]; first compound 2.53 µM),relative viability ([4]; first compound 8 µM)
NCI-H322M,0.733,0.726,0.857,0.729,0.128,0.446,0.452,0.372,0.495,0.622,0.452,0.513,0.485,0.449,0.467,0.788,0.924,0.89,1.01,0.915
NCI-H1993,1.13,0.876,1.19,1.1,1.01,0.804,0.907,0.788,0.822,0.779,0.519,0.554,0.547,0.593,0.498,0.684,0.635,0.649,0.703,0.669
NCI-H2170,0.546,0.698,0.672,0.576,0.559,0.296,0.287,0.301,0.271,0.276,0.778,0.685,0.746,0.739,0.671,0.975,1.05,0.986,0.976,0.893
LXF-289,0.948,0.99,1.06,1.04,1.02,0.714,0.75,0.733,0.715,0.74,0.214,0.174,0.2,0.232,0.177,0.926,1.03,0.994,0.938,0.823
NCI-H2405,0.78,0.816,0.873,0.722,0.827,0.315,0.433,0.332,0.523,0.342,0.759,0.729,0.725,0.631,0.635,0.914,0.942,0.786,0.99,1
NCI-H2023,0.63,0.422,0.458,0.427,0.44,0.161,0.177,0.215,0.175,0.18,0.327,0.356,0.279,0.184,0.189,0.81,0.712,0.778,1.09,0.681
HCC-15,0.628,0.669,0.753,0.735,0.82,0.644,0.665,0.684,0.692,0.701,0.491,0.426,0.433,0.387,0.243,0.942,1.01,0.928,1.07,0.922
COR-L23,0.35,0.329,0.361,0.309,0.27,0.539,0.57,0.451,0.714,0.661,0.207,0.164,0.168,0.124,0.15,0.986,0.945,0.886,0.864,0.87
HCC-78,0.798,0.855,0.871,0.712,0.824,0.204,0.198,0.261,0.219,0.22,0.338,0.446,0.423,0.447,0.454,,0.484,0.558,0.537,0.568
NCI-H1355,0.727,0.665,0.754,0.521,0.761,0.268,0.315,0.348,0.292,0.327,0.534,0.469,0.561,0.384,0.394,0.882,0.749,0.663,0.685,0.71
NCI-H838,0.835,0.739,0.83,0.638,0.832,0.382,0.334,0.4,0.288,0.289,0.25,0.281,0.273,0.206,0.236,0.838,0.861,0.923,1.04,0.866
NCI-H2126,0.916,0.965,1,0.992,0.991,0.416,0.443,0.449,0.425,0.436,0.938,0.819,0.926,0.627,0.828,0.858,1.11,1.08,0.982,0.862
BEN,1.21,1.1,1.4,1.23,1.08,0.543,0.528,0.585,0.446,0.543,0.481,0.506,0.561,0.483,0.481,0.615,0.435,0.624,0.392,0.629
LCLC-103H,,0.747,0.75,0.758,0.781,0.402,0.54,0.551,0.572,0.546,0.43,0.497,0.506,0.443,0.434,0.663,0.695,0.725,0.76,0.608
EKVX,0.653,0.704,0.766,,0.744,0.374,0.391,0.344,0.32,0.346,,0.409,0.405,0.443,0.333,0.941,0.726,0.578,0.733,0.75
ABC-1,0.727,1.39,0.844,0.67,0.78,0.48,0.665,0.686,0.634,0.486,0.223,0.163,0.168,0.226,0.18,1.08,1.14,1.18,0.884,1.03
NCI-H661,0.722,0.779,0.802,0.731,0.711,0.447,0.47,0.407,0.397,0.489,0.338,0.372,0.344,0.342,0.363,0.904,1.07,0.973,0.999,0.863
NCI-H1651,0.155,0.216,0.177,0.181,0.169,0.476,0.651,0.749,0.465,0.588,0.743,0.68,0.685,0.484,0.583,0.825,0.736,0.72,0.917,0.862
NCI-H2087,0.73,0.583,0.63,0.523,0.7,0.616,0.812,0.851,0.885,0.77,0.317,0.22,0.239,0.211,0.236,0.996,1.12,0.994,1.05,0.688
NCI-H1944,,0.344,,0.364,0.374,0.29,0.309,0.327,0.304,0.297,,0.214,,0.205,0.247,0.863,0.85,0.862,0.75,0.777
LC-2-ad,0.708,0.715,0.719,0.702,0.73,0.365,0.366,0.478,0.369,0.436,0.426,0.443,0.435,0.391,0.384,0.836,,0.901,0.909,1.07
COR-L 105,0.655,0.532,0.689,0.494,0.498,0.322,0.427,0.374,0.413,0.393,0.377,0.353,0.361,0.333,0.317,1.16,0.977,1.01,1.01,0.562
NCI-H1437,0.623,0.603,0.668,0.616,0.61,0.53,0.613,0.689,0.294,0.285,0.399,0.454,0.4,0.426,0.36,1.16,1.21,1.11,1.27,1.12
H3255,0.474,0.566,0.513,0.545,0.555,0.535,0.552,0.542,0.526,0.408,0.437,0.712,0.502,0.687,0.608,0.895,0.464,0.909,0.822,0.875
NCI-H2009,0.733,0.546,0.818,0.702,0.635,0.724,0.837,0.692,0.856,0.957,0.762,0.71,0.744,0.817,0.658,1.2,1.11,1.14,1.22,1.18
NCI-H1755,0.769,0.832,0.893,0.849,0.755,0.339,0.401,0.338,0.344,0.367,,0.573,0.57,0.57,0.454,0.862,0.835,0.823,0.758,0.664
HOP-62,0.312,0.819,0.451,0.289,0.418,0.581,0.758,1.09,0.668,0.903,0.366,0.349,0.408,0.414,0.395,1.08,1.07,1.12,1.15,1.04
